Experiments:
Hepatitis C virus [1] = assay: Antiviral activity against Hepatitis C virus genotype 1 infected in patient assessed as decrease in log10 HCV RNA copies/ml at 120 mg administered as single dose; type: functional, Hepacivirus hominis
Hepatitis C virus [2] = assay: Antiviral activity against Hepatitis C virus genotype 1b in Huh-luc/neo-ET replicon cells assessed as log10 reduction of HCV RNA at 10 times EC90 after 20 days by RNA reduction assay; type: functional, Hepacivirus hominis
Hepatitis C virus [3] = assay: Antiviral activity against Hepatitis C virus genotype 1b in Huh-luc/neo-ET replicon cells assessed as log10 reduction of HCV RNA at 3 to 10 times EC90 after 5 days by RNA reduction assay; type: functional, Hepacivirus hominis
Hepatitis C virus [4] = assay: Antiviral activity against Hepatitis C virus genotype 1 infected in patient assessed as decrease in log10 HCV RNA copies/ml at 1 mg administered as single dose; type: functional, Hepacivirus hominis
Hepatitis C virus [5] = assay: Antiviral activity against Hepatitis C virus genotype 1b in Huh-luc/neo-ET replicon cells assessed as log10 reduction of HCV RNA at 3 times EC90 after 20 days by RNA reduction assay; type: functional, Hepacivirus hominis
[6] = Binding affinity to human alpha1 AGP; type: ADME; conditions: isolated protein
Albumin = Albumin (Homo sapiens, UniProt P02768); assay: Binding affinity to human serum albumin; type: ADME; conditions: isolated protein
Chain of Albumin (P02768 whole entry): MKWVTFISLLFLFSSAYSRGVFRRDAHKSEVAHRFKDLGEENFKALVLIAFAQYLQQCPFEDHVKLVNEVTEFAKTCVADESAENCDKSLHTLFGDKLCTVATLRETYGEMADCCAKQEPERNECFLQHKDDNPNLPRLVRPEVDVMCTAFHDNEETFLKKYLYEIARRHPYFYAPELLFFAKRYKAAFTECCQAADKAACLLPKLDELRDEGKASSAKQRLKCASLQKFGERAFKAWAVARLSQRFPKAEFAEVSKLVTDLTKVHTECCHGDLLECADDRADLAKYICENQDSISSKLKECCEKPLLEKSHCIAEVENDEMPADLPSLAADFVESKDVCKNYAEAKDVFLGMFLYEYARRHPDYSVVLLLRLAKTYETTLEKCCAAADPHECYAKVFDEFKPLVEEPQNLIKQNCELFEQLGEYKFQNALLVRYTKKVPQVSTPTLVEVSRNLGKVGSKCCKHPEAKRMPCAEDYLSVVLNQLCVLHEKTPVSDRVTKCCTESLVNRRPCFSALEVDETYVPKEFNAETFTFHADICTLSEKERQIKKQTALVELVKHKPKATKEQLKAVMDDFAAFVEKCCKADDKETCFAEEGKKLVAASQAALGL

Cytochrome P450 3A4 = Cytochrome P450 3A4 (Homo sapiens, UniProt P08684); assay: Inhibition of CYP3A4 (unknown origin); type: ADME
Chain of Cytochrome P450 3A4 (P08684 whole entry): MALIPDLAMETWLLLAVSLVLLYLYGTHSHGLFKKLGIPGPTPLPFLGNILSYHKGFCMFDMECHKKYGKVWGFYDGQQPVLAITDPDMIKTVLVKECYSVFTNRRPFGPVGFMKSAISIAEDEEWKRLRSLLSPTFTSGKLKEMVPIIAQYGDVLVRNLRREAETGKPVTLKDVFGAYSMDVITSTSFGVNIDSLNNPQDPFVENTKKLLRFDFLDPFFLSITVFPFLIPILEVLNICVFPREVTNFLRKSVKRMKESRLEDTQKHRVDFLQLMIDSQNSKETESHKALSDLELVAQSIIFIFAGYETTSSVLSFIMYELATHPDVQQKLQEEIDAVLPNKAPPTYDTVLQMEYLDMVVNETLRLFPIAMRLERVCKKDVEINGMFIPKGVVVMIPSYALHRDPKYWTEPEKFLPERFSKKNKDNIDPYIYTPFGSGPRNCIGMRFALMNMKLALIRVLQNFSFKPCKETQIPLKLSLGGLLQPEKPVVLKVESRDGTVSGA

Cytochrome P450 2C19 = Cytochrome P450 2C19 (Homo sapiens, UniProt P33261); assay: Inhibition of CYP2C19 (unknown origin); type: ADME
Chain of Cytochrome P450 2C19 (P33261 whole entry): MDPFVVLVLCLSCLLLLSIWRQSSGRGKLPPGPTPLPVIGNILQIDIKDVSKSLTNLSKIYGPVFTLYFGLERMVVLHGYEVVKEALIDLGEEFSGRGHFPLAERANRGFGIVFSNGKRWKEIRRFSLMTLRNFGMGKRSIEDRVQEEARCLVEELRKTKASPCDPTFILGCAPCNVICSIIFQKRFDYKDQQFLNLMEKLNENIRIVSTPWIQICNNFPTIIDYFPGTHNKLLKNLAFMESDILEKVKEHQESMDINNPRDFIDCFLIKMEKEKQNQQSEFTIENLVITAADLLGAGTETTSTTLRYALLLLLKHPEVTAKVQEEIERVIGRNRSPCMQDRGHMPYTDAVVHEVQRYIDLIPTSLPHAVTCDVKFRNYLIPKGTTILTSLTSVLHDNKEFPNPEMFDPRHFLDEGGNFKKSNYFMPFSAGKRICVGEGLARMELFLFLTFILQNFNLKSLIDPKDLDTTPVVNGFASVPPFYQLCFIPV

Cytochrome P450 2D6 = Cytochrome P450 2D6 (Homo sapiens, UniProt P10635); assay: Inhibition of CYP2D6 (unknown origin); type: ADME
Chain of Cytochrome P450 2D6 (P10635 whole entry): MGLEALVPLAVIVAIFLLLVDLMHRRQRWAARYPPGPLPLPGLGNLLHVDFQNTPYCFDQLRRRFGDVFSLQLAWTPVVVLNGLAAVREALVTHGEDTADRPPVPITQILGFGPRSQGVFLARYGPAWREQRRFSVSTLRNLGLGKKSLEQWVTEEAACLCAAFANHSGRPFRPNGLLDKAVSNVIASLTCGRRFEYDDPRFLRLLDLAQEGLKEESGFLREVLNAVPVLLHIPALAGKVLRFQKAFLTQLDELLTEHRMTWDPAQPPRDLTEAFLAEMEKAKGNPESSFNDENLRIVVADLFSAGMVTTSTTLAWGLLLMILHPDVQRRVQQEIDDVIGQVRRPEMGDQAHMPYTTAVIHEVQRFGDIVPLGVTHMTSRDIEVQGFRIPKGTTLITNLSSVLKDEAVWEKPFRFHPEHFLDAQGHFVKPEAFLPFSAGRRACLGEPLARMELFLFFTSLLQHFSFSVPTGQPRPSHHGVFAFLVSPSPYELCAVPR

Cytochrome P450 2C9 = Cytochrome P450 2C9 (Homo sapiens, UniProt P11712); assay: Inhibition of CYP2C9 (unknown origin); type: ADME
Chain of Cytochrome P450 2C9 (P11712 whole entry): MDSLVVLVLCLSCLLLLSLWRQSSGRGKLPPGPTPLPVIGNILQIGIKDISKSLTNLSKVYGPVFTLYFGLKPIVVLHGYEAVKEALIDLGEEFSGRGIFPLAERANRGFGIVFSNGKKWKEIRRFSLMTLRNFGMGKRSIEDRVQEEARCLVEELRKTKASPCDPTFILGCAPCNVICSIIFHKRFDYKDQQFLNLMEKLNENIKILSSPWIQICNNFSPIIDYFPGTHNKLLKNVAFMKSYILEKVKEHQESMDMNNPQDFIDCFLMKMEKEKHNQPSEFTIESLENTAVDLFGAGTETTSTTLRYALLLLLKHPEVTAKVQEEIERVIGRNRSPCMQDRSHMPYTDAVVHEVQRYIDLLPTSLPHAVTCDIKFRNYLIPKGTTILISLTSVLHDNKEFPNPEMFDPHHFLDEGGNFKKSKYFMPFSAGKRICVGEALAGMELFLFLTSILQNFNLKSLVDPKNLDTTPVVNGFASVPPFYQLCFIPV

Cytochrome P450 1A2 = target: T1, Cytochrome P450 1A2 (Homo sapiens, UniProt P05177); assay: Inhibition of CYP1A2 (unknown origin); type: ADME
T1 sequence (P05177 whole entry): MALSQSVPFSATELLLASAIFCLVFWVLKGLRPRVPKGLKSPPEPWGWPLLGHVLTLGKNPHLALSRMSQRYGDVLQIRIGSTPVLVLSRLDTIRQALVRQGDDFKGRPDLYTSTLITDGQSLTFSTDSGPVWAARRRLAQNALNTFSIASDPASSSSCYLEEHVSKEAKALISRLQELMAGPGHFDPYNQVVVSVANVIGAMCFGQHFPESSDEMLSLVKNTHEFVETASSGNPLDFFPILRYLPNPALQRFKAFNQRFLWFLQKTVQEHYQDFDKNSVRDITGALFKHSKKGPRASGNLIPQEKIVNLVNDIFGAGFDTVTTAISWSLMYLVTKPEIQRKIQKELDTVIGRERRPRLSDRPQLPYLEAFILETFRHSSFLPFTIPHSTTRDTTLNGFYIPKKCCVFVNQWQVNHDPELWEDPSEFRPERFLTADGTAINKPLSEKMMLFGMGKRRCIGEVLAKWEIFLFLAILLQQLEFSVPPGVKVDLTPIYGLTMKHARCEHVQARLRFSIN

[7] = Cytotoxicity against human HuhET cells infected with Hepatitis C virus up to 40 uM after 48 hrs by WST assay; type: cell-based
[8] = Half life in rat hepatocytes; type: ADME, cell-based, Hepatocyte
[9] = Half life in human hepatocytes; type: ADME, cell-based, Hepatocyte
[10] = Half life in cynomolgus monkey hepatocytes; type: ADME, cell-based, Macaca fascicularis, Hepatocyte
[11] = Half life in dog hepatocytes; type: ADME, cell-based, Canis lupus familiaris, Hepatocyte
[12] = Oral bioavailability in cynomolgus monkey; type: ADME, organism-based, Macaca fascicularis; conditions: in vivo
[13] = In vivo clearance in cynomolgus monkey relative to hepatic blood flow; type: ADME, organism-based, Macaca fascicularis, Liver; conditions: read-out: CLH
[14] = Oral bioavailability in beagle dog; type: ADME, organism-based, Canis lupus familiaris; conditions: in vivo
[15] = In vivo clearance in beagle dog relative to hepatic blood flow; type: ADME, organism-based, Canis lupus familiaris, Liver; conditions: read-out: CLH
[16] = Oral bioavailability in CD rat; type: ADME, organism-based; conditions: in vivo
[17] = In vivo clearance in CD rat relative to hepatic blood flow; type: ADME, organism-based, Liver; conditions: read-out: CLH
Hepatitis C virus [18] = assay: Antiviral activity against Hepatitis C virus genotype 1b harboring NS5A Y93H mutant gene in Huh-luc/neo-ET replicon cells after 48 hrs by transient replicon mutant-based luciferase assay; type: functional, organism-based, Hepacivirus hominis
Hepatitis C virus [19] = assay: Antiviral activity against Hepatitis C virus genotype 1b harboring NS5A L31V mutant gene in Huh-luc/neo-ET replicon cells after 48 hrs by transient replicon mutant-based luciferase assay; type: functional, organism-based, Hepacivirus hominis
Hepatitis C virus [20] = assay: Antiviral activity against Hepatitis C virus genotype 1b harboring NS5A L28V mutant gene in Huh-luc/neo-ET replicon cells after 48 hrs by transient replicon mutant-based luciferase assay; type: functional, organism-based, Hepacivirus hominis
Hepatitis C virus [21] = assay: Ratio of EC50 for Hepatitis C virus genotype 1b harboring NS5A Y93H mutant gene to EC50 for Hepatitis C virus genotype 1b harboring wild type NS5A in Huh-luc/neo-ET replicon cells by replicon-based luciferase assay; type: functional, Hepacivirus hominis
Hepatitis C virus [22] = assay: Ratio of EC50 for Hepatitis C virus genotype 1b harboring NS5A L31V mutant gene to EC50 for Hepatitis C virus genotype 1b harboring wild type NS5A in Huh-luc/neo-ET replicon cells by replicon-based luciferase assay; type: functional, Hepacivirus hominis
Hepatitis C virus [23] = assay: Antiviral activity against Hepatitis C virus genotype 1b in Huh-luc/neo-ET replicon cells after 48 hrs by replicon-based luciferase assay; type: functional, organism-based, Hepacivirus hominis
Hepatitis C virus [24] = assay: Antiviral activity against Hepatitis C virus genotype 1a in Huh-luc/neo-ET replicon cells after 48 hrs by replicon-based luciferase assay; type: functional, organism-based, Hepacivirus hominis; conditions: subtype 1a

Compound	FC (Hepatitis C virus [2])	FC (Hepatitis C virus [3])	FC (Hepatitis C virus [5])	bioavailability [16]	clearance [17]	EC50 (Hepatitis C virus [18])	EC50 (Hepatitis C virus [19])	EC50 (Hepatitis C virus [20])	Ratio EC50 (Hepatitis C virus [21])	Ratio EC50 (Hepatitis C virus [22])	EC50 (Hepatitis C virus [23])	EC50 (Hepatitis C virus [24])	further results
COC(=O)N[C@H](C(=O)N1CCC[C@H]1c1ncc(-c2ccc(-c3ccc(-c4cnc([C@@H]5CC6(CN5C(=O)[C@@H](NC(=O)OC)C(C)C)OCCO6)[nH]4)cc3)cc2)[nH]1)C(C)C	4	2	3	13%	60 mL/min/kg	0.0251 nM	0.0251 nM	0.00316 nM	3.2	<=5	0.00794 nM	0.0398 nM	FC (Hepatitis C virus [1]): 2.95; FC (Hepatitis C virus [4]): 0.996; Activity [6]: 86%; Activity (Albumin): 94%; IC50 (Cytochrome P450 3A4): > 33000 nM; IC50 (Cytochrome P450 2C19): > 33000 nM; IC50 (Cytochrome P450 2D6): > 33000 nM; IC50 (Cytochrome P450 2C9): > 33000 nM; IC50 (Cytochrome P450 1A2): > 33000 nM; Activity [7]: Non-toxic; half-life [8]: 2.67 h; half-life [9]: ≥ 6 h; half-life [10]: ≥ 6 h; half-life [11]: ≥ 6 h; bioavailability [12]: 13%; clearance [13]: 9 mL/min/kg; bioavailability [14]: 51%; clearance [15]: 8 mL/min/kg
COC(=O)N[C@H](C(=O)N1CCC[C@H]1c1ncc(-c2ccc(-c3ccc(-c4cnc([C@@H]5CCCN5C(=O)[C@@H](NC(=O)OC)C(C)C)[nH]4)cc3)cc2)[nH]1)C(C)C [DACLATASVIR]	3	2	2			0.316 nM	0.126 nM	0.00398 nM	>=30	>=25	0.01 nM	0.0398 nM	
COC(=O)N[C@H](C(=O)N1CC2(C[C@H]1c1ncc(-c3ccc(-c4ccc(-c5cnc([C@@H]6CC7(CN6C(=O)[C@@H](NC(=O)OC)C(C)C)OCCO7)[nH]5)cc4)cc3)[nH]1)OCCO2)C(C)C				9%	58 mL/min/kg	0.0126 nM	0.0251 nM	0.0126 nM		<=5	0.01 nM	0.0501 nM	
